{
  "source": "paper PMC11363900",
  "about": "“A single-pass type I membrane protein, mannose-specific L-type lectin, potentially involved in the adhesion and invasion of Cryptosporidium parvum” (Parasite, 2024)",
  "target": "T1, CpLTL (GST-CpLTL) (Cryptosporidium parvum, UniProt Q5CWG8)",
  "T1 construct": "gene cgd6_5140; lectin-leg-like domain (nucleotides 130-852 of the ORF; domain 44-284 aa of 469), without signal peptide and TM, GST fusion kept (pGEX-4T-1), E. coli Rosetta (DE3), about 48 kDa",
  "T1 sequence (Q5CWG8 entry or part of it)": "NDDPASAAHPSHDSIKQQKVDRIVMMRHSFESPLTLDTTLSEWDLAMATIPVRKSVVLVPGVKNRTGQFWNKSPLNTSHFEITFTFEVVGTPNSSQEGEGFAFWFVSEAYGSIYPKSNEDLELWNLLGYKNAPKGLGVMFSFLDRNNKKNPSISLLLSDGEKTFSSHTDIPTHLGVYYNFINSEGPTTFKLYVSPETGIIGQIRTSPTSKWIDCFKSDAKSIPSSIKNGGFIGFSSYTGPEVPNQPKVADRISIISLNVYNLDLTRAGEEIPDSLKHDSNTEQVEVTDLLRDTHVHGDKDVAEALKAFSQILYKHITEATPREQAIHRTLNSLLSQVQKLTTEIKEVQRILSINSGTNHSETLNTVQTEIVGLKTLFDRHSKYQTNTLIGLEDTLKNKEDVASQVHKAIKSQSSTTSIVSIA",
  "experiment": "competition ELISA, immobilised GST-CpLTL, binding of horseradish peroxidase (mannose-rich glycoprotein), OD405",
  "conditions": "100 mM mannose, 50 μg/mL HRP, PBS, 4 °C overnight; competitive with HRP glycan",
  "data": [
    {"compound": "OC[C@H]1OC(O)[C@@H](O)[C@@H](O)[C@@H]1O", "note": "(stereo partly shown) [mannose]", "values": [
      {"measurement": "competition ELISA, immobilised GST-CpLTL, binding of horseradish peroxidase (man)", "value": "Mannose showed competitive inhibition on the binding of HRP to GST-CpLTL protein"}
    ]}
  ]
}
